Data published in patent publication US8063225B2, “Tricyclic compound derivatives useful in the treatment of neoplastic diseases, inflammatory disorders and immunomodulatory disorders” (Chembridge Corporation, priority 2006, dated 2011).

Experiments:
[1] = tested on: MM1s; assay: Cell proliferation inhibition, MTT assay, MM1s; format: cell-based; details: Homo sapiens, MM1.S, 72 h, MM1S multiple myeloma cells, 3-day proliferation
Excerpt: (§1) IGF1R and other tyrosine kinase inhibitors can inhibit the proliferation of certain cancer cell lines indicating their possible therapeutic utility for treating the corresponding cancer types. Cancer cell lines of interest and control normal lines, including CHO, HEK293, BA/F3, COLO205, PC3, DU145, MCF7, Panc1, ACHN, Hep G2, H460, K562, TT, U87-MG, CAOV-3, SK-MEL5, Karpas 299 and human multiple myeloma cell lines H929, MM1s, MM1r, UTMC2, CPM2, KMS11, My5, KMS12PE, My7, JJN3, KMS18, U266, SKMM2, RPMI-8226 are plated in white, clear-bottomed 384-well cell culture plates at 2500-5000 cells per well and supplied with dilutions of tested compounds After a desired period of time (typically 3 days), the number of viable cells is quantitated by using Cell Titer-Glo Luminescent Cell Viability Assay (Promega), a cell proliferation assay system based on detection of total amount of ATP present as a measure of cell metabolic activity. The plated cells are mixed with the Cell Titer-Glo developing reagent and counted in a luminescence multiwell plate reader according to the standard manufacturer's protocol to generate IC50 curves for cell proliferation inhibition. Results are typically reported as percent of growth (% viability =(OD72h(compound)−ODday0))/(OD72h(no compound)−ODday0). Alternatively, viable cells are quantitated by using the conventional colorimetric MTT assay. The MTT assay is based on the cleavage of the yellow tetrazolium salt MTT to purple formazan crystal by metabolic active cells. The formazan is then solubilized, and the concentration determined by optical density at 570 nm. The cells plated and incubated with a compound as described above are supplemented with the solution of MTT and incubated for 2-3 hours. The growth medium is removed and dimethyl sulfoxide is added into each well to dissolve the formazan. The absorbance is measured on an ELISA plate reader with a test wavelength of 570 nm and a background subtraction wavelength of 630 nm to obtain sample signal (OD570-OD630). […] The results are reported in terms of IC50 value for a particular compound and a cell line in the standard 3-day proliferation assay using Cell Titer-Glo. […] The results are reported in terms of IC50 value for a particular compound and a cell line in the standard 3-day proliferation assay using MTT assay.

[2] = tested on: CHO (chinese hamster ovary); assay: Cell proliferation inhibition, MTT assay, CHO; format: cell-based; details: Cricetulus griseus, 72 h, CHO cells, 3-day proliferation
Excerpt: as §1

[3] = tested on: HEK293 (human normal embryonic kidney); assay: Cell proliferation inhibition, MTT assay, HEK293; format: cell-based; details: 72 h, HEK293 cells, 3-day proliferation, read-out: HEK IC50
Excerpt: as §1

[4] = tested on: CPM2; assay: Cell proliferation inhibition, MTT assay, CPM2; format: cell-based; details: Homo sapiens, Multiple myeloma cell, 72 h, CPM2 multiple myeloma cells, 3-day proliferation
Excerpt: as §1

[5] = tested on: H929; assay: Cell proliferation inhibition, MTT assay, H929; format: cell-based; details: Homo sapiens, NCI-H929, 72 h, H929 multiple myeloma cells, 3-day proliferation
Excerpt: as §1

[6] = tested on: MM1r; assay: Cell proliferation inhibition, MTT assay, MM1r; format: cell-based; details: Homo sapiens, MM.1R, 72 h, MM1R multiple myeloma cells, 3-day proliferation
Excerpt: as §1

[7] = tested on: KMS11; assay: Cell proliferation inhibition, MTT assay, KMS11; format: cell-based; details: Homo sapiens, KMS-11, 72 h, KMS11 multiple myeloma cells, 3-day proliferation
Excerpt: as §1

[8] = tested on: UTMC2; assay: Cell proliferation inhibition, MTT assay, UTMC2; format: cell-based; details: Homo sapiens, 72 h, UTMC2 multiple myeloma cells, 3-day proliferation
Excerpt: as §1

[9] = target: T1, InsR (Homo sapiens, UniProt P06213); assay: Tyrosine kinase assay (Kinase-Glo or AlphaScreen), InsR; details: biochemical tyrosine kinase assay
T1 construct: 6×His- or GST-tagged kinase domain fragments of the corresponding RTKs expressed in baculovirus system; host or cells: baculovirus system
T1 sequence (P06213 1023-1298 limits assumed, species assumed): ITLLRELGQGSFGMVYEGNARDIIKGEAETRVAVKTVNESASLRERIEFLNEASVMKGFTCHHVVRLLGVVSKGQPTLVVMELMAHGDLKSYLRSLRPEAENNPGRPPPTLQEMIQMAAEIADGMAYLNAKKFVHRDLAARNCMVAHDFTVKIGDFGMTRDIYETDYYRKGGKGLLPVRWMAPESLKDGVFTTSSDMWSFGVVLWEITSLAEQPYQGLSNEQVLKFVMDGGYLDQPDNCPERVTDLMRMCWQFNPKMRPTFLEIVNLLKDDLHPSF
How it was run: (§2)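 Phosphorylation of poly(Glu-Tyr) by baculovirus-made kinase domains, 10 μM ATP, measured either as ATP depletion (Kinase-Glo, 37° C, 1 h) or phosphotyrosine AlphaScreen (room temperature, 30 min plus 60 min with beads).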

[10] = target: T2, Jak2 (Homo sapiens, UniProt O60674); assay: Tyrosine kinase assay (Kinase-Glo or AlphaScreen), Jak2; details: biochemical tyrosine kinase assay
T2 construct: 6×His- or GST-tagged kinase domain fragments of the corresponding RTKs expressed in baculovirus system; host or cells: baculovirus system
T2 sequence (O60674 849-1124 limits assumed, species assumed): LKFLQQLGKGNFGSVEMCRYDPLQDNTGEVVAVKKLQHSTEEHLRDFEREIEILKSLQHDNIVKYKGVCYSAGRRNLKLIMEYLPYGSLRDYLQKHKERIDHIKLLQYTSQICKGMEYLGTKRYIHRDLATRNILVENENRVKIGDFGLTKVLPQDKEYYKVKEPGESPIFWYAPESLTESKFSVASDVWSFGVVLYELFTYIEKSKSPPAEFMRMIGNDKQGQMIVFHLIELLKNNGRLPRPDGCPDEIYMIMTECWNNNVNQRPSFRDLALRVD
How it was run: as §2

[11] = target: T3, Alk (Homo sapiens, UniProt Q9UM73); assay: Tyrosine kinase assay (Kinase-Glo or AlphaScreen), Alk; details: biochemical tyrosine kinase assay
T3 construct: 6×His- or GST-tagged kinase domain fragments of the corresponding RTKs expressed in baculovirus system; host or cells: baculovirus system
T3 sequence (Q9UM73 1116-1392 limits assumed, species assumed): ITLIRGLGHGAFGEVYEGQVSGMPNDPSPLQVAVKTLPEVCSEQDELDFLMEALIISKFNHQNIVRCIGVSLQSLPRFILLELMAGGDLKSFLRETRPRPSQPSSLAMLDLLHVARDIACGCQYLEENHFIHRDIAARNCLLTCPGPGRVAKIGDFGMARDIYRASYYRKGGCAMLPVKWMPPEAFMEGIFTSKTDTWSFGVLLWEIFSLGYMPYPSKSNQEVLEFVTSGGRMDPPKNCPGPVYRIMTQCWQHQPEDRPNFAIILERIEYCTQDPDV
How it was run: as §2

[12] = target: T4, IGF1R tyrosine kinase (Homo sapiens, UniProt P08069); assay: IGF1R tyrosine kinase assay (Kinase-Glo ATP depletion or PT66/PT100 AlphaScreen); details: biochemical tyrosine kinase assay
T4 construct: 6×His- or GST-tagged kinase domain fragments of the corresponding RTKs expressed in baculovirus system; host or cells: baculovirus system
T4 sequence (P08069 999-1274 limits assumed): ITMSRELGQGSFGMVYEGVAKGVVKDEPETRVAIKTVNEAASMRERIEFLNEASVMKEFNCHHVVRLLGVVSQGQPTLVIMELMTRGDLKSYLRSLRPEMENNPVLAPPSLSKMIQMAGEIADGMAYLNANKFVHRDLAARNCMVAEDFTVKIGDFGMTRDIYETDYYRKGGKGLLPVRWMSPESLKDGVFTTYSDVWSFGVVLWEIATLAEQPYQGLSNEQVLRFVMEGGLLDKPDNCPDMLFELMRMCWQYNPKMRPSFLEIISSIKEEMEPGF
How it was run: as §2

[13] = target: T5, TrkA (Homo sapiens, UniProt P04629); assay: Tyrosine kinase assay (Kinase-Glo or AlphaScreen), TrkA; details: biochemical tyrosine kinase assay
T5 construct: 6×His- or GST-tagged kinase domain fragments of the corresponding RTKs expressed in baculovirus system; host or cells: baculovirus system
T5 sequence (P04629 510-781 limits assumed, species assumed): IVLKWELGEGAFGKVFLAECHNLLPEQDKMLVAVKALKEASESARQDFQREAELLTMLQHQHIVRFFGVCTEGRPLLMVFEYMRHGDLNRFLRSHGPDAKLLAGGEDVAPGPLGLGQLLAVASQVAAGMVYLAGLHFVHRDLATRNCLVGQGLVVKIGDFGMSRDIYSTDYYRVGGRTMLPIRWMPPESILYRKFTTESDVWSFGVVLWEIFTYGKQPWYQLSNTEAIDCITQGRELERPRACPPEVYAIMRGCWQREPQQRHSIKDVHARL
Experimental: To determine inhibition of several tyrosine kinases, such as IGF1R, InsR, Alk, TrkA and Jak2, kinase assays are conducted using either Kinase-Glo (Promega) or AlphaScreen (PerkinElmer) kinase assay platforms. The Kinase-Glo Luminescent Kinase Assay is a homogeneous method for measuring kinase activity by determining the amount of ATP remaining after a kinase reaction. The luminescent signal is proportional to the amount of ATP and inversely proportional to the amount of kinase activity. Tyrosine kinase PT66 AlphaScreen Assay is a high-sensitivity homogeneous, anti-phosphotyrosine antibody-mediated luminescent proximity method measuring, incorporation of phosphate in synthetic poly(Glu-Tyr) substrate. The kinase preparations used consist of purified recombinant, 6×His- or GST-tagged kinase domain fragments of the corresponding RTKs expressed in baculovirus system.
The IGF1R tyrosine kinase is assayed in Kinase-Glo ATP depletion assay using the synthetic polymer poly(Glu-Tyr, 4:1) (Sigma Chemicals) as a phosphoacceptor substrate. Each reaction mixture consists of a total volume of 10 μl and contains 40 ng of the enzyme, 5 μg of poly(Glu-Tyr), 10 μM of ATP and variable concentrations of test compounds. The mixtures also contain 50 mM Tris-HCl, pH 7.5; 5 mM MgCl2; 5 mM MnCl2; 2 mM DTT and 0.01% Tween 20. The reaction mixtures are incubated at 37° C. for 60 minutes and residual concentration of ATP in the mixture is determined by adding luciferase-containing Kinase-Glo (Promega) development reagent and counting luminescence levels using Fusion Universal Microplate Analyzer (PerkinElmer). Tested compounds are dissolved in dimethyl sulfoxide to a stock concentration of 10 mM and are typically evaluated in the assay at eight concentrations in 1 nM to 20 μM range, each in quadruplicate. […] IC50 values are derived by non-linear regression analysis using Prism 3.0 software (Graphpad Software). Other tyrosine kinases are assayed according to the same protocol after titrating amount of the enzyme to provide optimal signal-to-noise ratio and no more than 30% of total ATP consumption in the reaction conditions used.
The IGF1R tyrosine kinase is assayed in Phosphotyrosine (PT66 or PT 100) AlphaScreen chemiluminescent assay (PerkinElmer) according to the manufacturerer's recommendations. Each kinase reaction mixture consists of a total volume of 15 μl and contains 0.1-1 ng of the enzyme, 7 ng of biotinylated poly(Glu-Tyr) (Cis-Bio), 10 μM of ATP and variable concentrations of test compounds. The mixtures also contain 50 mM Tris-HCl, pH 7.5; 5 mM MgCl2; 5 mM MnCl2; 2 mM DTT and 0.01% Tween 20. The reaction mixtures are incubated at room temperature for 30 minutes. Ten (10) μl of the mixture of […] and donor beads (as supplied by the manufacturer) is then added to the reaction and the incubation is continued for an additional 60 minutes.

[14] = tested on: Karpas-299; assay: Cell proliferation inhibition, Cell Titer-Glo, Karpas-299; format: cell-based; details: Homo sapiens; cell proliferation assay, Karpas-299 cells
How it was run: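 In this standard 3-day proliferation assay, Karpas 299 cells plated at 2500-5000 cells per well in 384-well white, clear-bottomed plates were treated with compound dilutions. Cell Titer-Glo developing reagent was added following the manufacturer's protocol, luminescence reflecting ATP content was read on a multiwell plate reader, and IC50 curves were generated.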

[15] = tested on: Ba/F3; assay: Cell proliferation inhibition, Cell Titer-Glo, Ba/F3; format: cell-based; details: Mus musculus, BaF3; cell proliferation assay, Ba/F3 cells
How it was run: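 This standard 3-day proliferation assay used Ba/F3 cells plated in 384-well white plates with clear bottoms at 2500-5000 cells per well and treated with compound dilutions. Viable cell number was determined by mixing in Cell Titer-Glo developing reagent according to the manufacturer's protocol and counting luminescence. Percent viability relative to day 0 and untreated wells produced IC50 curves.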

[16] = tested on: H929 (multiple myeloma); assay: Cell proliferation inhibition, Cell Titer-Glo, H929; format: cell-based; details: Homo sapiens, NCI-H929; cell proliferation assay, H929 cells
How it was run: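 Cells seeded at 2500-5000 per well with serially diluted compound for typically 3 days. Viable cells measured by ATP luminescence (Cell Titer-Glo); IC50 from proliferation-inhibition curves.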

[17] = tested on: K562; assay: Cell proliferation inhibition, Cell Titer-Glo, K562; format: cell-based; details: Homo sapiens; cell proliferation assay, K562 cells
How it was run: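 Proliferation inhibition in human K562 cells was assessed in a standard 3-day assay. Cells (2500-5000 per well) in 384-well white, clear-bottomed plates received serial compound dilutions, then Cell Titer-Glo reagent was added per the manufacturer's protocol. Luminescence reflecting ATP content of metabolically active cells was counted in a multiwell reader, and IC50 curves were generated.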

[18] = tested on: HEK293 (human normal embryonic kidney); assay: Cell proliferation inhibition, Cell Titer-Glo, HEK293; format: cell-based; details: cell proliferation assay, HEK293 cells, read-out: HEK 293 IC50
Experimental: IGF1R and other tyrosine kinase inhibitors can inhibit the proliferation of certain cancer cell lines indicating their possible therapeutic utility for treating the corresponding cancer types. Cancer cell lines of interest and control normal lines, including CHO, HEK293, BA/F3, MM1, H929, COLO205, PC3, DU145, MCF7, Panc1, ACHN, Hep G2, H460, K562, TT, U87-G, CAOV-3, SK-MEL5, Karpas 299, are plated in white, clear-bottomed 384-well cell culture plates at 2500-5000 cells per well and supplied with dilutions of tested compounds After a desired period of time (typically 3 days), the number of viable cells is quantitated by using Cell Titer-Glo Luminescent Cell Viability Assay (Promega), a cell proliferation assay system based on detection of total amount of ATP present as a measure of cell metabolic activity. The plated cells are mixed with the Cell Titer-Glo developing reagent and counted in a luminescence multiwell plate reader according to the standard manufacturer's protocol to generate IC50 curves for cell proliferation inhibition.
as §1

| SMILES | IC50 [1] | IC50 [2] | IC50 [3] | IC50 [4] | IC50 [5] | IC50 [6] | IC50 [7] | IC50 [8] | IC50 [9] | IC50 [10] | IC50 [11] | IC50 [12] | IC50 [13] | IC50 [14] | IC50 [15] | IC50 [16] | IC50 [17] | IC50 [18] |
| --- | --- | --- | --- | --- | --- | --- | --- | --- | --- | --- | --- | --- | --- | --- | --- | --- | --- | --- |
| Cc1ccc(OCC(=O)CNc2cc[nH]c(=O)c2-c2nc3cc4c(cc3[nH]2)CN(C2CCN(C)CC2)C4=O)c(C)c1 [drawing 838] | < 500 nM | ≥ 20000 nM | ≥ 20000 nM | 1000 to 5000 nM | < 500 nM | 500 to 1000 nM | 1000 to 5000 nM | 500 to 1000 nM |  |  |  |  |  |  |  |  |  |  |
| Cc1c(Cl)cccc1OC[C@H](O)CNc1cc[nH]c(=O)c1-c1nc2cc3c(cc2[nH]1)C(=O)N(C1CCN(C)CC1)C3 [compound 133] |  |  |  |  |  |  |  |  | < 500 nM | < 500 nM | 500 to 5000 nM | < 500 nM | < 500 nM |  |  |  |  |  |
| Cc1c(Cl)cccc1OC[C@H](O)CNc1cc[nH]c(=O)c1-c1nc2cc3c(cc2[nH]1)C(=O)N(C1CCN(CCCO)CC1)C3=O [compound 135] |  |  |  |  |  |  |  |  | 500 to 5000 nM | 500 to 5000 nM | 500 to 5000 nM | < 500 nM | < 500 nM | > 15000 nM | > 15000 nM | > 15000 nM | > 15000 nM |  |
| CN1CCC(N2Cc3cc4nc(-c5c(NC[C@@H](O)c6cccc(Cl)c6)cc[nH]c5=O)[nH]c4cc3C2=O)CC1 [compound 16] |  |  |  |  |  |  |  |  | < 500 nM | 500 to 5000 nM | < 500 nM | < 500 nM | < 500 nM |  |  | 5000 to 15000 nM | > 15000 nM | 5000 to 15000 nM |
| CN1CCC(N2Cc3cc4nc(-c5c(NC[C@@H](O)COc6c(F)ccc(Cl)c6F)cc[nH]c5=O)[nH]c4cc3C2=O)CC1 [compound 134] |  |  |  |  |  |  |  |  | < 500 nM | < 500 nM | 5000 to 15000 nM | < 500 nM | < 500 nM |  |  |  |  |  |
